Laboratory results: paper PMC9709406 (Frontiers in Pharmacology, 2022)
“And” between values parts separate entries of the source, which are not always exact repeats. Identical values can stand only once. One block for each compound: values may come before it.

Experiments:
H1650 cells = experiment: MTT assay for cell proliferation and cytotoxicity, H1650; assay type: cell-based; details: Homo sapiens, NCI-H1650, 48 h, H1650, n = 5
Text: (§1) The human cancer cells (H1650, H1975, KYSE70, KYSE410 and KYSE450) were purchased from the Type Culture Collection of the Chinese Academy of Sciences (Shanghai, China). The human immortalized normal esophageal epithelial cell line SHEE was donated by Dr. Enmin Li from the Laboratory of Tumor Pathology (Shantou University Medical College, Shantou, Guangdong, China). Drug-resistant cells (H1650TR, H1975OR, KYSE70TR, KYSE410TR and KYSE450TR) were induced by China-US (Henan) Hormel Cancer Institute. The cellswere cultured in RPMI-1640 complete growth medium containing 100 U/mL penicillin-streptomycin and 10% FBS. Based on the above medium formula, 100 nm/L paclitaxel was added in taxol-resistant cells, 100 nm/L gefitinib was added in gefitinib-resistant cells. The cells were incubated at 37 °C in an atmosphere containing 5% of CO2. The compounds were dissolved in DMSO to make a 50 mM stock solution and were diluted to the concentration of working solutions with complete growth medium before administration.
(§2) Cells were seeded in 96-well plates with 2,200–2,500 cells/well in100 μL. One day after seeding, test compounds with the concentration between 0 and 50 μM were added with 0.1% DMSO as control. Five multiple wells for each concentration. After 48 h, MTT was added and incubated in the plate for 1–4 h in the incubator. The absorbance at 490 nm was measured using a microplate reader (Thermo).

H1975 cells = experiment: MTT assay for cell proliferation and cytotoxicity, H1975; assay type: cell-based, human; details: Homo sapiens, NCI-H1975, 48 h, MTT, 48 h, H1975, n = 5; read-out: IC50 48 h H1975
Text: as §1
as §2, with “After 48 h, MTT was added and incubated in the plate for 1–4 h in the incubator.” left out

SHEE cells = experiment: MTT assay, normal esophageal epithelial cell line SHEE; assay type: cell-based; details: Homo sapiens, 48 h, n = 5
Text: as §1, §2

KYSE70 cells = experiment: MTT assay, KYSE70; assay type: cell-based, human; details: for IC50: Homo sapiens, KYSE-70, MTT, 48 h, KYSE70, n = 5
Text: as §1, §2

KYSE410 cells = experiment: MTT assay, KYSE410; assay type: cell-based, human; details: for IC50: Homo sapiens, KYSE-410, MTT, 48 h, KYSE410, n = 5, read-out: IC50 48 h KYSE410
Text: as §1, §2

KYSE450 cells = experiment: MTT assay, KYSE450; assay type: cell-based, human; details: for IC50: Homo sapiens, KYSE-450, MTT, 48 h, KYSE450, n = 5, read-out: IC50 48 h KYSE450; for absorbance 490 nm, single well / mean absorbance 490 nm (row G) / mean absorbance 490 nm minus background (row H): KYSE450
Text: as §1, §2

[1] = concentration 12.5 (unit not given)
[2] = concentration 25 (unit not given)
[3] = concentration 50 (unit not given)
[4] = concentration 100 (unit not given)

- melting point: 137 to 140 °C
Compound: Ic1ccccc1-n1cc(-c2cccc(Nc3ncnc4cc5c(cc34)OCCOCCOCCO5)c2)nn1 [compound 3h]
- IC50 (H1650 cells): 30.6 ± 1.99 µM
- IC50 (H1975 cells): 12.1 ± 0.92 µM
- IC50 (SHEE cells): 22.6 ± 1.19 µM
- IC50 (KYSE70 cells): 18.4 ± 1.05 µM
- IC50 (KYSE410 cells): > 50 µM
- IC50 (KYSE450 cells): 16.7 ± 1.31 µM

- melting point: 122 to 125 °C
Compound: COc1cccc(-n2cc(-c3cccc(Nc4ncnc5cc6c(cc45)OCCOCCOCCO6)c3)nn2)c1 [compound 3i]
- IC50 (H1650 cells): 6.25 ± 0.54 µM
- IC50 (H1975 cells): 19.7 ± 1.07 µM
- IC50 (SHEE cells): 28.1 ± 1.38 µM
- IC50 (KYSE70 cells): 7.02 ± 0.64 µM
- blank-corrected absorbance 490 nm relative to control (fraction) (KYSE70 cells; KYSE70, concentration 12.5): 0.1099
- inhibition (1 minus fraction of control) (KYSE70 cells; KYSE70, concentration 12.5): 0.8901
- blank-corrected absorbance 490 nm relative to control (fraction) (KYSE70 cells; KYSE70, concentration 25): 0.08489
- inhibition (1 minus fraction of control) (KYSE70 cells; KYSE70, concentration 25): 0.9151
- blank-corrected absorbance 490 nm relative to control (fraction) (KYSE70 cells; KYSE70, concentration 50): 0.007475
- inhibition (1 minus fraction of control) (KYSE70 cells; KYSE70, concentration 50): 0.9925
- blank-corrected absorbance 490 nm relative to control (fraction) (KYSE70 cells; KYSE70, concentration 100): -0.01388
- inhibition (1 minus fraction of control) (KYSE70 cells; KYSE70, concentration 100): 1.014
- IC50 (KYSE410 cells): > 50 µM
- blank-corrected absorbance 490 nm relative to control (fraction) (KYSE410 cells; KYSE410, concentration 12.5): 0.4787
- blank-corrected absorbance 490 nm relative to control (fraction) (KYSE410 cells; KYSE410, concentration 25): 0.6596
- blank-corrected absorbance 490 nm relative to control (fraction) (KYSE410 cells; KYSE410, concentration 50): 1.468
- blank-corrected absorbance 490 nm relative to control (fraction) (KYSE410 cells; KYSE410, concentration 100): 0.817
- IC50 (KYSE450 cells): 10 ± 0.93 µM
- absorbance 490 nm, single well (KYSE450 cells; [1]): 0.3641 and 0.3196 and 0.3651
- mean absorbance 490 nm (row G) (KYSE450 cells; [1]): 0.3496
- mean absorbance 490 nm minus background (row H) (KYSE450 cells; [1]): 0.2948
- absorbance 490 nm, single well (KYSE450 cells; [2]): 0.1604 and 0.1809 and 0.1731
- mean absorbance 490 nm (row G) (KYSE450 cells; [2]): 0.1715
- mean absorbance 490 nm minus background (row H) (KYSE450 cells; [2]): 0.1167
- absorbance 490 nm, single well (KYSE450 cells; [3]): 0.1052 and 0.1046 and 0.0923 and 0.1026
- mean absorbance 490 nm (row G) (KYSE450 cells; [3]): 0.1012
- mean absorbance 490 nm minus background (row H) (KYSE450 cells; [3]): 0.04637
- absorbance 490 nm, single well (KYSE450 cells; [4]): 0.0702 and 0.0745 and 0.0767 and 0.0714
- mean absorbance 490 nm (row G) (KYSE450 cells; [4]): 0.0732
- mean absorbance 490 nm minus background (row H) (KYSE450 cells; [4]): 0.0184

- melting point: 151 to 154 °C
Compound: Brc1cc(Br)cc(Cn2cc(-c3cccc(Nc4ncnc5cc6c(cc45)OCCOCCOCCO6)c3)nn2)c1 [compound 3u]
- IC50 (H1650 cells): > 50 µM
- IC50 (H1975 cells): > 50 µM
- IC50 (SHEE cells): > 50 µM
- IC50 (KYSE70 cells): > 50 µM
- IC50 (KYSE410 cells): > 50 µM
- IC50 (KYSE450 cells): > 50 µM

- melting point: 129 to 132 °C
Compound: Fc1ccc(-n2cc(-c3cccc(Nc4ncnc5cc6c(cc45)OCCOCCOCCO6)c3)nn2)cc1 [compound 3c]
- IC50 (H1650 cells): 9.4 ± 0.73 µM
- IC50 (H1975 cells): > 50 µM
- IC50 (SHEE cells): 6.23 ± 0.37 µM
- IC50 (KYSE70 cells): 5.84 ± 0.36 µM
- IC50 (KYSE410 cells): > 50 µM
- IC50 (KYSE450 cells): 13.8 ± 1.13 µM

- melting point: 118 to 121 °C
Compound: Fc1ccccc1Cn1cc(-c2cccc(Nc3ncnc4cc5c(cc34)OCCOCCOCCO5)c2)nn1 [compound 3m]
- IC50 (H1650 cells): > 50 µM
- IC50 (H1975 cells): 47.3 ± 2.01 µM
- IC50 (SHEE cells): > 50 µM
- IC50 (KYSE70 cells): > 50 µM
- IC50 (KYSE410 cells): > 50 µM
- IC50 (KYSE450 cells): > 50 µM

The next lines start with the compound.

Compound: Brc1cccc(Cn2cc(-c3cccc(Nc4ncnc5cc6c(cc45)OCCOCCOCCO6)c3)nn2)c1 [compound 3q]
- IC50 (H1650 cells): 21.5 ± 1.87 µM
- IC50 (H1975 cells): 47.3 ± 2.13 µM
- IC50 (SHEE cells): > 50 µM
- IC50 (KYSE70 cells): 20.7 ± 1.73 µM
- IC50 (KYSE410 cells): > 50 µM
- IC50 (KYSE450 cells): 21.8 ± 1.12 µM
- melting point: 113 to 116 °C

Compound: c1ccc(-n2cc(-c3cccc(Nc4ncnc5cc6c(cc45)OCCOCCOCCO6)c3)nn2)cc1 [compound 3f]
- IC50 (H1650 cells): 12.3 ± 0.91 µM
- IC50 (H1975 cells): > 50 µM
- IC50 (SHEE cells): > 50 µM
- IC50 (KYSE70 cells): 25 ± 1.53 µM
- IC50 (KYSE410 cells): > 50 µM
- IC50 (KYSE450 cells): 45 ± 2.53 µM
- melting point: 148 to 150 °C

Compound: Clc1cccc(-n2cc(-c3cccc(Nc4ncnc5cc6c(cc45)OCCOCCOCCO6)c3)nn2)c1 [compound 3g]
- IC50 (H1650 cells): 8.72 ± 0.73 µM
- IC50 (H1975 cells): 4.75 ± 0.33 µM
- IC50 (SHEE cells): 8.01 ± 0.77 µM
- IC50 (KYSE70 cells): 6.13 ± 0.31 µM
- IC50 (KYSE410 cells): 10.9 ± 0.99 µM
- IC50 (KYSE450 cells): 4.51 ± 0.29 µM
